Assay results: the Kinase Knowledgebase extract (Sharma et al. 2016)

Key:
CDK2 (human) [1] = target: CDK2 (human) (UniProt P24941); test: Enzyme Assay
CDK2 (human) [2] = target: CDK2 (human) (UniProt P24941); test: Enzyme Assay; remark: listed apart in the source

Row | Kd (CDK2 (human) [1]) [nM] | Kd (CDK2 (human) [2]) [nM] | Compound
1 | > 10000 | > 10000 | NS(=O)(=O)Cc1cccc(Nc2ncnc(N3CCCCC3)n2)c1
2 |  | > 10000 | COC[C@H]1CCN1c1ncnc(Nc2cccc(CS(N)(=O)=O)c2)n1
3 | > 10000 |  | CN(C)CCC1CCCCN1c1ncnc(Nc2cccc(CS(N)(=O)=O)c2)n1 (configuration not stated)
4 |  | 100 to 1000 | NS(=O)(=O)Cc1cccc(Nc2ncnc(N3CCCc4ccccc43)n2)c1
5 |  | > 10000 | NS(=O)(=O)Cc1cccc(Nc2ncnc(N3CCC[C@H]3CO)n2)c1
6 |  | < 100 | NS(=O)(=O)Cc1cccc(Nc2ncnc(N3CCc4nc[nH]c4C3)n2)c1
7 |  | 100 to 1000 | NS(=O)(=O)Cc1cccc(Nc2ncnc(N3CCc4ccccc43)n2)c1
8 |  | > 10000 | NS(=O)(=O)Cc1cccc(Nc2ncnc(N3CCC[C@@H]3CN3CCCC3)n2)c1
9 | 100 to 1000 |  | NS(=O)(=O)Cc1cccc(Nc2ncnc(N3Cc4cn[nH]c4C3)n2)c1
10 | < 100 | < 100 | NS(=O)(=O)Cc1cccc(Nc2ncnc(N3CCCn4nccc43)n2)c1
11 |  | > 10000 | COC[C@H]1CCCCN1c1ncnc(Nc2cccc(CS(N)(=O)=O)c2)n1
12 |  | > 10000 | COC[C@@H]1CCCN1c1ncnc(Nc2cccc(CS(N)(=O)=O)c2)n1
13 |  | 100 to 1000 | NS(=O)(=O)Cc1cccc(Nc2ncnc(N3Cc4ccncc4C3)n2)c1
14 | > 10000 |  | NS(=O)(=O)Cc1cccc(Nc2ncnc(N3CCCC3c3ccccc3)n2)c1 (configuration not stated)
15 | 100 to 1000 | 100 to 1000 | NS(=O)(=O)Cc1cccc(Nc2ncnc(N3CCc4ncccc4C3)n2)c1
16 | < 100 | < 100 | NS(=O)(=O)Cc1cccc(Nc2ncnc(N3CCc4ncsc4C3)n2)c1
17 |  | > 10000 | NS(=O)(=O)Cc1cccc(Nc2ncnc(N3CCC[C@@H]3COCc3ccccc3)n2)c1
18 |  | > 10000 | NS(=O)(=O)Cc1cccc(Nc2ncnc(N3CCC[C@@H]3CO)n2)c1
